Our source for the inhibition, EC50 and IC50 values is patent publication EP1606307B1, “ESTRIENO[3,2-B]/[3,4-C]PYRROLE DERIVATIVES USEFUL AS MODULATORS OF THE ESTROGEN RECEPTORS” (Ortho-McNeil Pharmaceutical, Inc., priority 2002, dated 2004).

The target in assay [1] is T1, human estrogen receptor β (Homo sapiens, UniProt Q92731).
T1 construct: purchased Panvera
Nature of the assay: Estrogen Receptor β Fluorescence Polarization Assay (Fluormone ES2 displacement). Type of assay: binding. The following applies: read-out: ERβ at 1 µM % Inhibition. An excerpt: This assay monitors binding of a fluorescent analog of estrogen (Fluormone ES2, Panvera) to the estrogen receptor. Plates were read in a fluorometer that can be set to polarization mode. A decrease in fluorescence relative to vehicle control is an indication of binding of a compound to the receptor.
It is crucial to avoid introduction of air bubbles into the reaction in each well of the 96 well plate throughout this procedure. (Bubbles on the surface of the reaction disrupt light flow, affecting the polarization reading.) However, it is also crucial to effectively mix the reaction components upon addition to the well.
On ice, a 2X standard mixture of Assay Buffer (Panvera), 10 nM DTT and 40 nM ES2 was prepared. On ice, a 2X reaction mixture of Assay Buffer (Panvera), and 20 nM human estrogen receptor β (hER-β, Panvera) and 40 nM ES2 was also prepared.
Dilutions of test compound were prepared in 30% (v/v) dimethyl sulfoxide/50 mM HEPES, pH 7.5. At this point, the dilutions were 40X the final required concentration.
The standard mixture at 50 µL was then added to each well. The reaction mixture at 48 µL was added to all wells. The compound dilution at 2.5 µL was added to the appropriate wells. The reaction mixtures were mixed using a manual pipette, a roll of aluminum foil adhesive cover was placed on the plate and the plate incubated at room temperature for 1 hour.
Each well on the plate was then read in an LjL Analyst with an excitation wavelength of […] and an emission wavelength of 538.
Background: In fluorescence polarisation assays a small probe gives low polarisation when free and higher when bound to something large.

In assay [2] the target is T2, human estrogen receptor α (Homo sapiens, UniProt P03372).
T2 construct: purchased Panvera
T2 sequence (P03372 1-595): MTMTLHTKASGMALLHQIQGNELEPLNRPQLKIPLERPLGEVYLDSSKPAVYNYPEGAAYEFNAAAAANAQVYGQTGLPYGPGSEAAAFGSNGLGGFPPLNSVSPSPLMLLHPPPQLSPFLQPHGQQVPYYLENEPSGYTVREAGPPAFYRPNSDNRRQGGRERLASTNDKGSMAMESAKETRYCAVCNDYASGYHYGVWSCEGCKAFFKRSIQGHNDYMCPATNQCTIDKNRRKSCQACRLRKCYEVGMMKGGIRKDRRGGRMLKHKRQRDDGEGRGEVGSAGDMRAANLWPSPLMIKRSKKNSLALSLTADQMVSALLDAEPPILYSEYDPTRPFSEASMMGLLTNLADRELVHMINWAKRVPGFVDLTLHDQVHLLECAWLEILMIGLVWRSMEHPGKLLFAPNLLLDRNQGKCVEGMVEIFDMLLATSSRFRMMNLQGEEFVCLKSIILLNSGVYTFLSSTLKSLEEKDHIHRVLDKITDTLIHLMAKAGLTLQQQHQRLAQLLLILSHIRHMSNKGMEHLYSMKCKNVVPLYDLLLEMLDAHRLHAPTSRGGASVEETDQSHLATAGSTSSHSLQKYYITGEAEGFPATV
Nature of the assay: Estrogen Receptor α Flash Plate Assay (binding of radiolabeled estrogen). The conditions noted are these: for inhibition at 1 µM: read-out: ERα at 1µM % Inhibition; for IC50: read-out: ERα Binding IC50. The method, then:
This assay monitors binding of radiolabeled estrogen to the estrogen receptor. It was performed on a BioMek 2000 (Beckman). Plates were read in a scintillation counter (Packard TopCount), with decreased counts an indication of binding of a compound to the receptor. The assay was run according to the procedure described by Allan, et al., Anal. Biochem. (1999), 275(2), 243-247.
On day one, 100 µL of Estrogen Screening Buffer (ESB, Panvera) containing 5mM dithiothreitol (DTT, Panvera), 0.5 µg mouse anti-estrogen receptor monoclonal antibody (SRA-1010, Stressgen) and 50 ng purified human estrogen receptor α (nER-α, Panvera) were added to each well of a 96 well FlashPlate Plus plate crosslinked with goat anti-mouse antibodies (NEN Life Sciences). The plate was sealed and incubated at 4°C overnight.
On day two, each well was washed three times with 200 µL PBS, pH 7.2, at room temperature. To each well was then added 98 µL radiolabeled estrogen (0.5 nM, which equals 6 nCi for a 120 Ci/mmol batch, Amersham), diluted in ESB and 5mM dithiothreitol (DTT). To individual wells were then added 2.5 µL test compound diluted in 30% (v/v) dimethyl sulfoxide/50 mM HEPES, pH 7.5. The wells were mixed three times by aspiration, the plate sealed and incubated at room temperature for one hour. The wells were then counted for 1 min in a TopCount scintillation counter (Packard).

The subject of assay [3] is Human Endometrial lshikawa Cells. Nature of the assay: Alkaline Phosphatase Assay in Human Endometrial Ishikawa Cells. It is filed as cell-based. The conditions noted are these: increase in alkaline phosphatase activity vs vehicle. The method, then: This assay was run according to the procedure described by Albert et a., Cancer Res, […], 50(11), 330-6-10, with minor modification.
Ishikawa cells (from ATCC) were maintained in DMEM/F12 (1:1) phenol red free medium (Gibco) supplemented with 10% calf serum (Hyclone). 24 hours prior to testing, the medium was changed to DMEM/F12 (1:1) phenol red free containing 2% calf serum.
Compounds to be tested in the agonist mode were added to the culture media at varying concentrations. Compounds to be treated in the antagonist mode were prepared similarly, and 10 nM 17β-estradiol was also added to the culture media. The cells were then incubated at 37°C for 3 days. On the fourth day, the media was remove, 1 volume of 1X Dilution Buffer (Clontech) was added to the well followed by addition of 1 volume of Assay Buffer (Clontech). The cells were then incubated at room temperature for 5 minutes. 1 volume of freshly prepared Chemiluminescence Buffer (1 volume of chemiluminescent substrate (CSPD) in 19 volume Chemiluminescent Enhancer with final concentration of CSPD at 1.25 mM; Sigma Chemical Co.) was added. The cells were incubated at room temperature for 10 minutes and then quantified on a luminometer. The increase of chemiluminescence over vehicle control was used to calculate the increase in alkaline phosphatase activity.

The subject of the next assay is MCF-7 cells. Nature of the assay: MCF-7 Cell Proliferation Assay (14C-thymidine incorporation). Type of assay: cell-based. The conditions noted are these: Homo sapiens, MCF7, increase in 14C-thymidine vs vehicle, read-out: MCF7 (Breast) EC50. How it is done: This assay was run according to the procedure described by Welshons, et al., (Breast Cancer Res. Treat., 1987, 10(2), 169-75), with minor modification.
Briefly, MCF-7 cells (from Dr. C. Jordan, Northwestern University) were maintained in RPMI 1640 phenol red free medium (Gibco) in 10% FBS (Hyclone), supplemented with bovine insulin and non-essential amino acid (Sigma). The cells were initially treated with 4-hydoxyltamoxifen (10^-8 M) and let stand at 37°C for 24 hours. Following this incubation with tamoxifen, the cells were treated with compounds at various concentrations.
Compounds to be tested in the agonist mode were added to the culture media at varying concentrations. Compounds to be treated in the antagonist mode were prepared similarly, and 10 nM 17β-estradiol was also added to the culture media. The cells were incubated for 24 hours at 37°C. Following this incubation, 0.1 µCi of ^14C-thymidine (56mCi/mmol, Amersham) was added to the culture media and the cells were incubated for an additional 24 hours at 37°C. The cells were then washed twice with Hank's buffered salt solution (HBSS) (Gibco) and counted with a scintillation counter. The increase in the ^14C-thymidine in the compound treated cells relative to the vehicle control cells were reported as percent increase in cell proliferation.
A general note: Dividing cells build labelled thymidine or BrdU into new DNA.

T1 sequence (Q92731 whole entry): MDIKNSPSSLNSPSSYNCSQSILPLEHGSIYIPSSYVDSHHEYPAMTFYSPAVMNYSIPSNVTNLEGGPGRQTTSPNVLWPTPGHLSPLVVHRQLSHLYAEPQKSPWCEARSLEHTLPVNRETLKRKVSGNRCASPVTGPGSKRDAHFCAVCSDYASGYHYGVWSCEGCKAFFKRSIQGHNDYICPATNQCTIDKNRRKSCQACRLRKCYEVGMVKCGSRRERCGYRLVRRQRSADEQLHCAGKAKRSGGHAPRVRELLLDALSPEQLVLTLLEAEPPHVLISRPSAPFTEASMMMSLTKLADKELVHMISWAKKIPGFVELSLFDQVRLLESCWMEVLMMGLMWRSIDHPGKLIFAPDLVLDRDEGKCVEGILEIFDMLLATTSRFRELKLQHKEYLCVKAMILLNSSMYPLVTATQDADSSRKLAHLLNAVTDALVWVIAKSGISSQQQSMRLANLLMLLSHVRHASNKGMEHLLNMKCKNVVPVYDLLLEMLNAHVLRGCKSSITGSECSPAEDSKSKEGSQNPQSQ

As a reminder, the inhibition is the change of the read-out against control, counted positive when it falls. Consider `C[C@]12CCC3c4cc5ccn(S(C)(=O)=O)c5cc4CCC3C1CCC2=O` (stereo partly shown) [Compound 1], for which the inhibition at 1 µM worked out at 6.2% in assay [1] and 11% in assay [2].
On to `C[C@]12CCC3c4ccc5c(ccn5S(C)(=O)=O)c4CCC3C1CCC2=O` (stereo partly shown) [Compound 2], for which the inhibition at 1 µM came to 27% in assay [1] and 45% in assay [2].
As a reminder, the EC50 is the concentration at which the effect is half-maximal. One may read the IC50 as the concentration that gives 50% inhibition. On to `C[C@]12CCC3c4cc5cc[nH]c5cc4CCC3C1CCC2=O` (stereo partly shown) [Compound 3], for which the EC50 in assay [3] is 1.9 nM; with MCF-7 cells, 240 nM. Moreover, the IC50 in assay [2] is 2200 nM.
For `C[C@]12CCC3c4ccc5[nH]ccc5c4CCC3C1CCC2=O` (stereo partly shown) [Compound 4], the concentration for a half-maximal effect (EC50) in assay [3] stood at 1.8 nM; with MCF-7 cells, 280 nM. In addition, the IC50 in assay [2] is 1400 nM.
On to `C[C@]12CCC3c4ccc5[nH]ccc5c4CCC3C1CC[C@@H]2O` (stereo partly shown) [Compound 6], for which the concentration giving a half-maximal response (EC50) in assay [3] was determined as 0.21 nM; in the assay on MCF-7 cells, 2.9 nM. In addition, the IC50 in assay [2] came to 42 nM.
On to `C[C@]12CCC3c4cc5ccn(S(C)(=O)=O)c5cc4CCC3C1CC[C@@H]2O` (stereo partly shown) [Compound 7], for which the inhibition at 1 µM in assay [1] was 14%; in assay [2], 19%.
Turning to `C[C@]12CCC3c4cc5cc[nH]c5cc4CCC3C1CC[C@@H]2O` (stereo partly shown) [Compound 8], the 50% effective concentration (EC50) in assay [3] was 0.44 nM; in the assay with MCF-7 cells it was 11 nM. Further, the IC50 in assay [2] came to 40 nM.
For the compound `CCCCC(=O)O[C@H]1CCC2C3CCc4cc5[nH]ccc5cc4C3CC[C@@]21C` (stereo partly shown) [Compound 12], the inhibition at 1 µM was determined as 96% in assay [1] and 95% in assay [2].
Take `C[C@]12CCC3c4cc5cc[nH]c5cc4CCC3C1CC[C@@H]2OC(=O)CCC(=O)O` (stereo partly shown) [Compound 13]: the figures for the EC50 (in assay [3]; in the assay with MCF-7 cells) were 1.2 nM and 15 nM, respectively. The 50% inhibitory concentration (IC50) in assay [2] came out at 920 nM.
Consider `CSc1c[nH]c2ccc3c(c12)CCC1C3CC[C@]2(C)C(=O)CCC12` (stereo partly shown) [Compound 15], for which the inhibition at 1 µM stood at 66% in assay [1] and 81% in assay [2].
